Laboratory results reported in US10265395B2, “Adjuvant compositions and related methods” (priority 2015, dated 2019).

What was measured:
BSA [1] = experiment: ELISA seroconversion to BSA in mice, BSA/adjuvant stability, time 0 and 6 months (Example 4); type: in vivo; details: for Geometric Means: Time point 6 Months; for Normalized: Day 28/29, Table 18 (to BSA only GMT of the same storage temperature)
BSA [2] = experiment: ELISA seroconversion to BSA in CF-1 mice, BSA/adjuvant stability at 12 months (Example 8); type: in vivo; details: 12 Month; for Geometric Mean (ELISA to BSA): adjuvants at 4X, > 20 considered positive
[3] = Time 0, Day 32, mice SC 50 ug BSA/0.1 mL on days 0 and 14, value of 10 used for no seroconversion
[4] = 6 Month, Day 28/29, S = stored stability sample, F = fresh, storage in the label
[5] = Day 13, mice SC 50 ug BSA/0.1 mL
[6] = Day 28/29, mice SC 50 ug BSA/0.1 mL days 0 and 14

Row | Substance | Incidence (# Mice Seroconverted/# Mice Treated) (BSA [1]; Time 0, Day 32) | Geometric Mean (ELISA to BSA) (BSA [1]; [3]) | Geometric Means (BSA [1]; Fresh) | Geometric Means (BSA [1]; Stability Ambient - Storage (18-27° C.)) | Geometric Means (BSA [1]; Stability Cold - Storage (2-7° C.)) | Incidence (# Mice Seroconverted/# Mice Treated) (BSA [1]; 6 Month, Day 28/29) | Normalized (BSA [1]; 6 Month) | Geometric Mean (ELISA to BSA) (BSA [1]; [4]) | Incidence (BSA [2]; Day 13) | Geometric Mean (ELISA to BSA) (BSA [2]; [5]) | Incidence (BSA [2]; Day 28/29) | Geometric Mean (ELISA to BSA) (BSA [2]; [6]) | Normalized (Geomean BSA/Adj06 ÷ Geomean BSA/PBS) (BSA [1]; Time 0, Day 32)
1 | BSA/PBS | 8/10 | 290 | 98 | 243 | 149 | – | – | – | – | – | – | – | –
2 | S-BSA/RT | – | – | – | – | – | 8/10 | 1 | 243 | 5/10 | 25 | 7/10 | 184 | –
3 | S-BSA/2-7° C. | 8/10 | 290 | – | – | – | 8/10 | 1 | 149 | 2/9 | 15 | 5/10 | 86 | 1
4 | F-BSA | – | – | – | – | – | 6/10 | – | 98 | 5/9 | 20 | 7/10 | 149 | –
